# Measurements as given in publication PMC4147353 (Nature Communications, 2014).
# How the values were obtained:
# USP7 = USP7 (Homo sapiens, UniProt Q93009); assay: MALDI-TOF DUB assay, inhibitor IC50 on USP7; type: biochemical; conditions: for potency for USP7 relative to the second most sensitive DUB on the panel (USP21): from IC50 values
# panel of 32 DUBs = type: biochemical, human
# [1] = type: physicochemical; conditions: 1 mM DTT or 0.5 mM TCEP, 30 °C for 1 h, DUB assay conditions; data not shown
# USP7, sequence (Q93009 whole entry): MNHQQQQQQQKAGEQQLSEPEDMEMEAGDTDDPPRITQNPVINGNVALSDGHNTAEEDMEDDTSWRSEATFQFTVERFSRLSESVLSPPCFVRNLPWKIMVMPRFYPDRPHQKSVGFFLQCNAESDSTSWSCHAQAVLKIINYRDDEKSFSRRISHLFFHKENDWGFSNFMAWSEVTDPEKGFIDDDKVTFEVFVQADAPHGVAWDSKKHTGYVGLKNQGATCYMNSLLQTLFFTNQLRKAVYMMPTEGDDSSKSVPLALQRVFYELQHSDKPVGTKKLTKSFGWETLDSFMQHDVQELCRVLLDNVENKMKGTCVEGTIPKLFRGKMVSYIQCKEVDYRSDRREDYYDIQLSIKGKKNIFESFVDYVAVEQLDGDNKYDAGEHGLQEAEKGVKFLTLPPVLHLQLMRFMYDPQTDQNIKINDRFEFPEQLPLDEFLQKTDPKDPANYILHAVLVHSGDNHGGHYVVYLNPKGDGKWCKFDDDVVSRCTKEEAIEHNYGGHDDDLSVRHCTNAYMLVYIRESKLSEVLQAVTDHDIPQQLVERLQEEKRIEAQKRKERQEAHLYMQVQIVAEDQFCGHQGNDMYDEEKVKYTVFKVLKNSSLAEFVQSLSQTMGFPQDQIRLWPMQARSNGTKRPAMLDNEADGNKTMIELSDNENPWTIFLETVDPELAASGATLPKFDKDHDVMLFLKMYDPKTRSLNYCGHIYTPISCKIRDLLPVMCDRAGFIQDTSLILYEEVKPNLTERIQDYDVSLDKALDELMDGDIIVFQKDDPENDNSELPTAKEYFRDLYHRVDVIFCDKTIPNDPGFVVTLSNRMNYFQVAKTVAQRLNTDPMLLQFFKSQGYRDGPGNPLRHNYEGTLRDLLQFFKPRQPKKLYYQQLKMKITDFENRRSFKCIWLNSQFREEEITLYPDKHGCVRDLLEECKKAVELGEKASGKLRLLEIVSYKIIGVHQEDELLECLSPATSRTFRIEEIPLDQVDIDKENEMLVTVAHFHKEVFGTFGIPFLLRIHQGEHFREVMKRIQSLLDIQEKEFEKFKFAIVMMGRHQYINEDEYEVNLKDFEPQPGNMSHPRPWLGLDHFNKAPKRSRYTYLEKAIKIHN
smiles,measurement,setting,value
Cc1ccc(S(=O)(=O)/C=C/C#N)cc1 [BAY 11-7082],potency for USP7 relative to the second most sensitive DUB on the panel (USP21),USP7,five- to eightfold higher potency
"N#Cc1nc2c(nc1C#N)-c1ccc(Cl)cc1C2=O [HBX 41,108]",number of DUBs inhibited more than 70%,"panel of 32 DUBs; of the 32 DUBs tested, at 5 μM",25
N#CSc1cc(SC#N)c(N)nc1N [PR-619],number of DUBs inhibited,panel of 32 DUBs; of the 32 tested DUBs,27
Cc1ccc(S(=O)(=O)c2ccc([N+](=O)[O-])o2)cc1 [NSC 697923],potency for USP7 relative to the second most sensitive DUB on the panel (USP21),USP7,five- to eightfold higher potency
same,"potency for USP7 relative to HBX 41,108","USP7; ratio of IC50 values, 0.08 μM versus 5.97 μM",70 fold
CCC[C@H](NC(=O)/C(C#N)=C/c1cccc(Br)n1)c1ccccc1 [WP1130],reaction with reducing agents DTT and TCEP,[1],significantly reacted with both DTT and TCEP
